# According to ChEMBL document CHEMBL4507290 (2021):
# Assays:
# [1] = tested on: Epidermal growth factor receptor (Homo sapiens), P00533 [G719S]; settings: Compound concentration 1000.0 nM
# [2] = tested on: Epidermal growth factor receptor (Homo sapiens), P00533 [UNDEFINED MUTATION]; settings: Compound concentration 1000.0 nM
# [3] = target: Cyclin-dependent kinase 9 (Homo sapiens) (UniProt P50750); settings: Compound concentration 1000.0 nM
# [4] = target: Dual specificity protein kinase CLK3 (Homo sapiens) (UniProt P49761); settings: Compound concentration 1000.0 nM
# [5] = target: cGMP-dependent protein kinase 1 (Homo sapiens) (UniProt Q13976); settings: Compound concentration 1000.0 nM
# [6] = target: 5-hydroxytryptamine receptor 2C (Homo sapiens) (UniProt P28335); settings: Compound concentration 10.0 uM
# [7] = target: Wee1-like protein kinase (Homo sapiens) (UniProt P30291); settings: Compound concentration 1000.0 nM
# [8] = target: Mitogen-activated protein kinase 12 (Homo sapiens) (UniProt P53778); settings: Compound concentration 1000.0 nM
# [9] = target: Serine/threonine-protein kinase MAK (Homo sapiens) (UniProt P20794); settings: Compound concentration 1000.0 nM
# [10] = target: Serine/threonine-protein kinase tousled-like 2 (Homo sapiens) (UniProt Q86UE8); settings: Compound concentration 1000.0 nM
# [11] = target: Serine/threonine-protein kinase N1 (Homo sapiens) (UniProt Q16512); settings: Compound concentration 1000.0 nM
# [12] = target: Serine/threonine-protein kinase SIK2 (Homo sapiens) (UniProt Q9H0K1); settings: Compound concentration 1000.0 nM
# [13] = target: Ephrin type-A receptor 1 (Homo sapiens) (UniProt P21709); settings: Compound concentration 1000.0 nM
# [14] = target: RAC-alpha serine/threonine-protein kinase (Homo sapiens) (UniProt P31749); settings: Compound concentration 1000.0 nM
# [15] = target: Tyrosine-protein kinase CSK (Homo sapiens) (UniProt P41240); settings: Compound concentration 1000.0 nM
# [16] = target: Serine/threonine-protein kinase SIK1 (Homo sapiens) (UniProt P57059); settings: Compound concentration 1000.0 nM
# [17] = tested on: Epidermal growth factor receptor (Homo sapiens), P00533 [L858R]; settings: Compound concentration 1000.0 nM
# [18] = target: Serine/threonine-protein kinase Nek5 (Homo sapiens) (UniProt Q6P3R8); settings: Compound concentration 1000.0 nM
# [19] = target: Serine/threonine-protein kinase ULK1 (Homo sapiens) (UniProt O75385); settings: Compound concentration 1000.0 nM
# [20] = target: Serine/threonine-protein kinase 33 (Homo sapiens) (UniProt Q9BYT3); settings: Compound concentration 1000.0 nM
# [21] = target: Beta-adrenergic receptor kinase 1 (Homo sapiens) (UniProt P25098); settings: Compound concentration 1000.0 nM
# [22] = target: Serine/threonine-protein kinase mTOR (Homo sapiens) (UniProt P42345); settings: Compound concentration 1000.0 nM
# [23] = target: Dual specificity tyrosine-phosphorylation-regulated kinase 1B (Homo sapiens) (UniProt Q9Y463); settings: Compound concentration 1000.0 nM
# [24] = target: Hormonally up-regulated neu tumor-associated kinase (Homo sapiens) (UniProt P57058); settings: Compound concentration 1000.0 nM
# [25] = target: Serine/threonine-protein kinase Sgk1 (Homo sapiens) (UniProt O00141); settings: Compound concentration 1000.0 nM
# [26] = tested on: Receptor-type tyrosine-protein kinase FLT3 (Homo sapiens), P36888 [D835Y]; settings: Compound concentration 1000.0 nM
# [27] = target: Serine/threonine-protein kinase ULK2 (Homo sapiens) (UniProt Q8IYT8); settings: Compound concentration 1000.0 nM
# [28] = target: 5-hydroxytryptamine receptor 1D (Homo sapiens) (UniProt P28221); settings: Compound concentration 10.0 uM
# [29] = target: Ribosomal protein S6 kinase alpha-6 (Homo sapiens) (UniProt Q9UK32); settings: Compound concentration 1000.0 nM
# [30] = target: Serine/threonine-protein kinase WNK2 (Homo sapiens) (UniProt Q9Y3S1); settings: Compound concentration 1000.0 nM
# [31] = target: Non-receptor tyrosine-protein kinase TYK2 (Homo sapiens) (UniProt P29597); settings: Compound concentration 1000.0 nM
# [32] = target: GABA-A receptor; anion channel (Rattus norvegicus) (UniProt O09028+P15431+P18506+P18508+P19969+P20236+P23574+P23576+P28471+P28473+P30191+P62813+P63079+P63138+Q91ZM7+Q9ES14); settings: Compound concentration 10.0 uM
# [33] = target: NT-3 growth factor receptor (Homo sapiens) (UniProt Q16288); settings: Compound concentration 1000.0 nM
# [34] = target: Calcium/calmodulin-dependent protein kinase type IV (Homo sapiens) (UniProt Q16566); settings: Compound concentration 1000.0 nM
# [35] = target: Serine/threonine-protein kinase Nek7 (Homo sapiens) (UniProt Q8TDX7); settings: Compound concentration 1000.0 nM
# [36] = target: Aurora kinase A (Homo sapiens) (UniProt O14965); settings: Compound concentration 1000.0 nM
# [37] = target: Cyclin-dependent kinase 3 (Homo sapiens) (UniProt Q00526); settings: Compound concentration 1000.0 nM
# [38] = tested on: Mast/stem cell growth factor receptor Kit (Homo sapiens), P10721 [A829P]; settings: Compound concentration 1000.0 nM
# [39] = target: Mitogen-activated protein kinase kinase kinase 11 (Homo sapiens) (UniProt Q16584); settings: Compound concentration 1000.0 nM
# [40] = target: Serine/threonine-protein kinase 4 (Homo sapiens) (UniProt Q13043); settings: Compound concentration 1000.0 nM
# [41] = target: Serine/threonine-protein kinase 3 (Homo sapiens) (UniProt Q13188); settings: Compound concentration 1000.0 nM
# [42] = target: Myosin-IIIa (Homo sapiens) (UniProt Q8NEV4); settings: Compound concentration 1000.0 nM
# [43] = target: Death-associated protein kinase 3 (Homo sapiens) (UniProt O43293); settings: Compound concentration 1000.0 nM
# [44] = target: SNF-related serine/threonine-protein kinase (Homo sapiens) (UniProt Q9NRH2); settings: Compound concentration 1000.0 nM
# Serine/threonine-protein kinase Sgk1 (Homo sapiens), sequence (O00141 whole entry): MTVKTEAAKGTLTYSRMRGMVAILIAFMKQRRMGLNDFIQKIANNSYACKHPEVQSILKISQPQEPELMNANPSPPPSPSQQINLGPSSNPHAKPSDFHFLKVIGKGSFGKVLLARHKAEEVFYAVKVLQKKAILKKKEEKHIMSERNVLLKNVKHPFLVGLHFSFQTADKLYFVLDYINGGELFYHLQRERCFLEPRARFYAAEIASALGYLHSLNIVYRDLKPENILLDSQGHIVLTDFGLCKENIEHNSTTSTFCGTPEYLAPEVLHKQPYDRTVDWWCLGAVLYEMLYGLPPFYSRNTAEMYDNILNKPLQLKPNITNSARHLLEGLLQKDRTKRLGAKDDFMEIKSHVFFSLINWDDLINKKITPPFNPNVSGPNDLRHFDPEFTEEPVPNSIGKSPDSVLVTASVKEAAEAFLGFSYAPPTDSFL
# Mitogen-activated protein kinase kinase kinase 11 (Homo sapiens), sequence (Q16584 whole entry, looked up): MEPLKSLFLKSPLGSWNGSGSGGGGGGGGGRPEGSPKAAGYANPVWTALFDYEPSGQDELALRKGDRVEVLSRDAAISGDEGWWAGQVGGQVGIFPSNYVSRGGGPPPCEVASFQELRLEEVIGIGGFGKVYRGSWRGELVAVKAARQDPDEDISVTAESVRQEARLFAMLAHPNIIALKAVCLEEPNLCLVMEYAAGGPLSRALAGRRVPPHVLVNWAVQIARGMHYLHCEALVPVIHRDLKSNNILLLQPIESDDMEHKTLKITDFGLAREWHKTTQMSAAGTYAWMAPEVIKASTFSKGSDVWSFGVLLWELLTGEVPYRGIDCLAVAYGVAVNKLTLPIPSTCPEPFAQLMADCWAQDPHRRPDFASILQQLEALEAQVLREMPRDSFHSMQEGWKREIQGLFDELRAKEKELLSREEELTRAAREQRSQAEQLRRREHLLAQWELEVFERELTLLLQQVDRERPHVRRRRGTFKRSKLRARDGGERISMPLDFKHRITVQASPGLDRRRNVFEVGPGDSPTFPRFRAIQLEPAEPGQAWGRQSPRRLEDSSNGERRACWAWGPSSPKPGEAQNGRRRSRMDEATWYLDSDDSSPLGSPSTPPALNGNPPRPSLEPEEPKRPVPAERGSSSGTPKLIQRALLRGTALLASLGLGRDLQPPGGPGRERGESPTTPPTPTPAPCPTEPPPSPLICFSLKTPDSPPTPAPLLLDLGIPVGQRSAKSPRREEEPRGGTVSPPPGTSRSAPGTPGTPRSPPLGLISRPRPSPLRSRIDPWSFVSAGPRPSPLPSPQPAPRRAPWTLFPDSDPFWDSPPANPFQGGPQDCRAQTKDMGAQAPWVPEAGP
# cGMP-dependent protein kinase 1 (Homo sapiens), sequence (Q13976 whole entry): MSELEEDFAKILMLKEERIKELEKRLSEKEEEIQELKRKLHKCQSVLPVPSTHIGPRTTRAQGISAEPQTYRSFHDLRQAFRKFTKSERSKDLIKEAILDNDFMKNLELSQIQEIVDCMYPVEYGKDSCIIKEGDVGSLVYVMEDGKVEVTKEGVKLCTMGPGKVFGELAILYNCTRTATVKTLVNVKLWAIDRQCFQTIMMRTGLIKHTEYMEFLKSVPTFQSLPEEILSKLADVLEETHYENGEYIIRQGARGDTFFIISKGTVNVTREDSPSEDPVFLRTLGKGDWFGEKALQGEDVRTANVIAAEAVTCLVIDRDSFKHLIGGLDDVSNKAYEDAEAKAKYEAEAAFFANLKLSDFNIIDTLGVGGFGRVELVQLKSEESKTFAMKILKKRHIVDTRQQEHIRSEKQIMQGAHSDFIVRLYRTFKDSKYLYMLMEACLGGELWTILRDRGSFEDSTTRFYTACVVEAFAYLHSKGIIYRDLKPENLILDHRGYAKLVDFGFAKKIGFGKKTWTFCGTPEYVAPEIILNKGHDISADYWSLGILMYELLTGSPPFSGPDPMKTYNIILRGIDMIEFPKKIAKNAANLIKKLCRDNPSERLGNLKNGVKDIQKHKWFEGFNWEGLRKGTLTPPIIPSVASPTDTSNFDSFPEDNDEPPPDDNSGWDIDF
# Aurora kinase A (Homo sapiens), sequence (O14965 whole entry): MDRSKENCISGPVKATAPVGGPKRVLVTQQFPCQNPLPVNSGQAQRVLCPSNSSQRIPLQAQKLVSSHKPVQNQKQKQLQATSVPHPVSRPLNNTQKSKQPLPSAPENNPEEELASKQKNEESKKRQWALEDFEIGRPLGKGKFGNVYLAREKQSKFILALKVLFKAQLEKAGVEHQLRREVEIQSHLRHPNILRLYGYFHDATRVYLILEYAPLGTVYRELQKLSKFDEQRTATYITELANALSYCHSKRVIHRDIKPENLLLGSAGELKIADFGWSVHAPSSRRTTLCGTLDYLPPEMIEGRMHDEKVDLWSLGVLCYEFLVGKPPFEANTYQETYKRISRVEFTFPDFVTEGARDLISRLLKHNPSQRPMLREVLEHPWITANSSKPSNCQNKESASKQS
# RAC-alpha serine/threonine-protein kinase (Homo sapiens), sequence (P31749 whole entry): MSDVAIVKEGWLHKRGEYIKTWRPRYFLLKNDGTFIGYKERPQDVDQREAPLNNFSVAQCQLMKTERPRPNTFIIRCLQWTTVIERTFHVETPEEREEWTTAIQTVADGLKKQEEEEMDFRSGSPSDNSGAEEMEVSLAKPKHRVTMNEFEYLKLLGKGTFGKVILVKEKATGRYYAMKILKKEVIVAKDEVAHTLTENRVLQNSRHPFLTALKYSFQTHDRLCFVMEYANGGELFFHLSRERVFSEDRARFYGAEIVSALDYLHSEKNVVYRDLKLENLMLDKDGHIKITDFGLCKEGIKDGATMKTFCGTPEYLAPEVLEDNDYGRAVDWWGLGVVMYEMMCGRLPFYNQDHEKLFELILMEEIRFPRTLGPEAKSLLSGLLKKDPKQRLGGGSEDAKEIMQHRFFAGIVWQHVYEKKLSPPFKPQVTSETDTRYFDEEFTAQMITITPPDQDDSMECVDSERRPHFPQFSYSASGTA
# 5-hydroxytryptamine receptor 2C (Homo sapiens), sequence (P28335 whole entry): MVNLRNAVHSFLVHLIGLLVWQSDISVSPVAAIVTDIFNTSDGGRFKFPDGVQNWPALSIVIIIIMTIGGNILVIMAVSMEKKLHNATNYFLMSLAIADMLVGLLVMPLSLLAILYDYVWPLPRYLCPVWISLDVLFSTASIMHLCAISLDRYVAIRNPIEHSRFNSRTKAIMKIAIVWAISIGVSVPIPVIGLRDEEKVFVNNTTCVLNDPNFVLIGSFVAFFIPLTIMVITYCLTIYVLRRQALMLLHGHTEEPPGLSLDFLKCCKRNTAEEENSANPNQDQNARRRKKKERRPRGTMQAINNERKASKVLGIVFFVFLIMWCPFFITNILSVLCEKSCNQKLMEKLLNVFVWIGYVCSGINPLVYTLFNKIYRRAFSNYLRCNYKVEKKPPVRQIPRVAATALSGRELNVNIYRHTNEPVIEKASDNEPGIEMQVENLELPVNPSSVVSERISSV
# Wee1-like protein kinase (Homo sapiens), sequence (P30291 whole entry, looked up): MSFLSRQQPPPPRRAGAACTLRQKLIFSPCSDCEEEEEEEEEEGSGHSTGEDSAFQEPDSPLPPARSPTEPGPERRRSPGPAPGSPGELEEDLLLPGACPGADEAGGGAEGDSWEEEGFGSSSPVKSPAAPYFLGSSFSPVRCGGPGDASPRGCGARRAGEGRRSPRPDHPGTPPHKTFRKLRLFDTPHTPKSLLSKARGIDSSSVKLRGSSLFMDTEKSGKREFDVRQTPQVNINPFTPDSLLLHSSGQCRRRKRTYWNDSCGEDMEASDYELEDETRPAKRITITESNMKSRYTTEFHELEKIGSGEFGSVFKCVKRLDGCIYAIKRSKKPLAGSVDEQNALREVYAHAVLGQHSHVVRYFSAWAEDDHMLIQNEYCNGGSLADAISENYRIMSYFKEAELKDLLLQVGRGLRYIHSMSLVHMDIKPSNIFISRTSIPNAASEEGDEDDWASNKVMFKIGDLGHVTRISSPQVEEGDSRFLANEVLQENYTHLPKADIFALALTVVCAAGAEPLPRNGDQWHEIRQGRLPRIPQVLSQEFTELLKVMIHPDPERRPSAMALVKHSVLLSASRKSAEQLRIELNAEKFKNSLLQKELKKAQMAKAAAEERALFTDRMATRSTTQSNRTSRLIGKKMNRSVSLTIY
# Serine/threonine-protein kinase Nek7 (Homo sapiens), sequence (Q8TDX7 whole entry, looked up): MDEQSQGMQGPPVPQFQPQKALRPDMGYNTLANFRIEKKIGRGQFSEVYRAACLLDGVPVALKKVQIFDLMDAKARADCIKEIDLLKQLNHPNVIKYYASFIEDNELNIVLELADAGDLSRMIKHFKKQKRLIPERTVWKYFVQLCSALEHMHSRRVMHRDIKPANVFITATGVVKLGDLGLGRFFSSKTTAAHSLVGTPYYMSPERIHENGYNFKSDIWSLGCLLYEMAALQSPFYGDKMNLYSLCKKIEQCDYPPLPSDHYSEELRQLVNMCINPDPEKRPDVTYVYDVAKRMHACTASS
# Calcium/calmodulin-dependent protein kinase type IV (Homo sapiens), sequence (Q16566 whole entry): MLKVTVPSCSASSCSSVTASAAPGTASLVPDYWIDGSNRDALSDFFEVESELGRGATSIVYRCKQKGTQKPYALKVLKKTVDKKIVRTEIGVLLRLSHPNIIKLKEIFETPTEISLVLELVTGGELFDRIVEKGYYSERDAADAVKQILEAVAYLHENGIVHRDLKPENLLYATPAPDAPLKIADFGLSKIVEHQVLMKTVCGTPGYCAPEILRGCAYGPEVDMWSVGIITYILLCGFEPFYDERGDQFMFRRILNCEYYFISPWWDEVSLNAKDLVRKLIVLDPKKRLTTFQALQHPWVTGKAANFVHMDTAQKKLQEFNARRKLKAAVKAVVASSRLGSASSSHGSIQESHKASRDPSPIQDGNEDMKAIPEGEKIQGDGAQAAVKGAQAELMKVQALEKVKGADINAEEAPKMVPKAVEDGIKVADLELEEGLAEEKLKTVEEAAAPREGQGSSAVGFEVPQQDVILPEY
smiles,measurement,setting,value
CN([C@@H]1CCc2c(CC(=O)O)c3cc(S(C)(=O)=O)ccc3n2C1)S(=O)(=O)c1ccc(F)cc1,residual activity,[1],100%
same,residual activity,[2],90%
same,residual activity,[3],100%
same,residual activity,[4],100%
same,residual activity,[5],95%
same,inhibition,[6],0.933%
same,residual activity,[7],100%
same,residual activity,[8],100%
same,residual activity,[9],65%
same,residual activity,[10],100%
same,residual activity,[11],90%
same,residual activity,[12],93%
same,residual activity,[13],88%
same,residual activity,[14],100%
same,residual activity,[15],99%
same,residual activity,[16],87%
same,residual activity,[17],91%
same,residual activity,[18],100%
same,residual activity,[19],92%
same,residual activity,[20],99%
same,residual activity,[21],84%
same,residual activity,[22],79%
same,residual activity,[23],36%
same,residual activity,[24],100%
same,residual activity,[25],100%
same,residual activity,[26],100%
same,residual activity,[27],100%
same,inhibition,[28],0.539%
same,residual activity,[29],100%
same,residual activity,[30],80%
same,residual activity,[31],83%
same,inhibition,[32],10.8%
same,residual activity,[33],100%
same,residual activity,[34],87%
same,residual activity,[35],98%
same,residual activity,[36],100%
same,residual activity,[37],100%
same,residual activity,[38],100%
same,residual activity,[39],100%
same,residual activity,[40],97%
same,residual activity,[41],98%
same,residual activity,[42],100%
same,residual activity,[43],97%
same,residual activity,[44],100%
CN([C@@H]1CCc2c(CC(=O)O)c3ccccc3n2C1)S(=O)(=O)c1ccc(F)cc1 [MK-7246],residual activity,[1],100%
same,residual activity,[2],100%
same,residual activity,[3],100%
same,residual activity,[4],97%
same,residual activity,[5],100%
same,inhibition,[6],-1.51%
same,residual activity,[7],100%
same,residual activity,[8],94%
same,residual activity,[9],82%
same,residual activity,[10],100%
same,residual activity,[11],83%
same,residual activity,[12],99%
same,residual activity,[13],100%
same,residual activity,[14],100%
same,residual activity,[15],100%
same,residual activity,[16],71%
same,residual activity,[17],93%
same,residual activity,[18],100%
same,residual activity,[19],96%
same,residual activity,[20],100%
same,residual activity,[21],86%
same,residual activity,[22],100%
same,residual activity,[23],44%
same,residual activity,[24],99%
same,residual activity,[25],100%
same,residual activity,[26],100%
same,residual activity,[27],100%
same,inhibition,[28],-6.38%
same,residual activity,[29],100%
same,residual activity,[30],92%
same,residual activity,[31],100%
same,inhibition,[32],22.4%
same,residual activity,[33],100%
same,residual activity,[34],85%
same,residual activity,[35],100%
same,residual activity,[36],100%
same,residual activity,[37],100%
same,residual activity,[38],100%
same,residual activity,[39],100%
same,residual activity,[40],98%
same,residual activity,[41],100%
same,residual activity,[42],100%
same,residual activity,[43],87%
same,residual activity,[44],100%
